Reference: patent publication EP4813992A1, “POLYARYL DERIVATIVE AND USE THEREOF” (Hangzhou HealZen Therapeutics Co., Ltd., priority 2023, dated 2025)

Experiments:
[1] = tested on: HPK1/GLK; test: Selectivity of degrading HPK1/GLK in Jurkat cells (Western blot, 24 h); assay type: cell-based; settings: HPK1/GLK Fold = DC50 (HPK1) / DC50 (GLK)
Method: • 1) Cell plating: Cells are resuscitated, Jurkat cell lines in good growth condition are selected, and cells in the logarithmic growth phase are collected and counted; cell suspensions are seeded into 12 or 24-well plates (20W/well) and incubated overnight at 37°C in a 5% CO2 incubator. • 2) Preparation of compounds to be tested: The compounds to be tested are serially diluted with DMSO according to the experimental requirements and added to the corresponding cell wells, to be incubated at 37°C in a 5% CO2 incubator for 24 h. • 3) Preparation of samples: After the reaction of the compound to be tested is completed, the cells are collected in 1.5 mL EP tubes, and centrifuged at 1500 rpm for 5 min; after the supernatant is discarded, the cells are washed once with PBS, and the BCA protein is quantified and the concentration is adjusted. The adjusted samples are added to 5*loading buffer, boiled at 100°C for 10 minutes, and then the samples are loaded after the temperature is returned to room temperature. • 4) Detection of samples: Electrophoresis is performed using 10% SDS-PAGE with a sample loading volume of 10 µL/well. After the membrane transfer is completed, the samples are blocked with 5% skim milk at room temperature for 1 h. After the residual blocking solution is washed away with TBST, HPK1 and GLK antibodies are added for incubation overnight at 4°C. Washing is performed 3 more times with TBST on a shaker, 5 minutes each time. After washing is completed, the secondary antibody is added for incubation at room temperature in a shaker for 1 hour; then, washing is performed 3 more times with TBST on a shaker, 5 minutes each time; finally, the membrane is soaked in TBST and then subjected to chemiluminescence development. • 5) Data Processing: After the PVDF membrane is developed, the data are exported and plotted using Imang J, and the gray values of the protein bands are analyzed using Image J software; the DC50 curve is fitted using Graphpad Prism 9 software to obtain the results of the selectivity of the compound in degrading HPK1/GLK: HPK1/GLK Fold = DC50 (HPK1) / DC50 (GLK) . Table 3 Selectivity of the compounds of the invention in degrading HPK1/GLK

[2] = Pharmacokinetic properties in SD rats after gavage; assay type: in vivo; settings: rat, po, 10 mg/kg, plasma
Method: The test compound is administered to SD rats by gavage at a dose of 10 mg/kg. Blood samples are collected at 0 h (before administration) and at 0.083, 0.25, 1, 2, 4, 6, 8, and 24 h after oral gavage administration. The samples are placed in anticoagulant tubes containing heparin sodium, and the mixture is thoroughly vortexed and centrifuged at 6000 rpm for 3 minutes. Plasma concentrations are determined by LC-MS/MS, and relevant pharmacokinetic parameters are calculated using Phoenix WinNonlin 8.2.0 pharmacokinetic software. Table 4 Pharmacokinetic properties of the compounds of the invention

[3] = target: T1, HPK1 kinase (Homo sapiens, UniProt Q92918); test: Activity of degrading HPK1 in Jurkat cells (Western blot, 24 h); assay type: cell-based; parameters: endogenous in cells; host or cells: Jurkat; settings: HPK1 protein degradation
Method: The adjusted samples are added to 5*loading buffer, boiled at 100°C for 10 minutes, and then the samples are loaded after the temperature is returned to room temperature. • 4) Detection of samples: Electrophoresis is performed using 10% SDS-PAGE with a sample loading volume of 8 µL/well. After the membrane transfer is completed, the samples are blocked with 5% BSA at room temperature for 1 h. After the residual blocking solution is washed away with TBST, HPK1 and GAPDH antibodies are added for incubation overnight at 4°C. Washing is performed 3 more times with TBST on a shaker, 10 minutes each time. After washing is completed, the secondary antibody is added for incubation at room temperature for 1 hour; then, washing is performed 3 more times with TBST on a shaker, 10 minutes each time; finally, ECL exposure solution is used to develop and image the bands to detect changes in HPK1 protein.

[4] = target: T1, HPK1 kinase; test: Lantha screen assay, inhibitory effect on HPK1 kinase; assay type: biochemical; settings: initial compound concentration 1 µM
How it was run: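 Kinase pre-incubated with compound for 10 min at room temperature in 50 mM HEPES pH 7.5, 10 mM MgCl2, 4 mM DTT, 0.01% Tween-20, 0.01% BSA. Fluorescein-PKC substrate plus ATP then added for 90 min, stopped with antibody/EDTA for 60 min. Top concentration 1 µM; IC50 from four-parameter fit of inhibition vs log concentration.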

T1 sequence (Q92918 whole entry): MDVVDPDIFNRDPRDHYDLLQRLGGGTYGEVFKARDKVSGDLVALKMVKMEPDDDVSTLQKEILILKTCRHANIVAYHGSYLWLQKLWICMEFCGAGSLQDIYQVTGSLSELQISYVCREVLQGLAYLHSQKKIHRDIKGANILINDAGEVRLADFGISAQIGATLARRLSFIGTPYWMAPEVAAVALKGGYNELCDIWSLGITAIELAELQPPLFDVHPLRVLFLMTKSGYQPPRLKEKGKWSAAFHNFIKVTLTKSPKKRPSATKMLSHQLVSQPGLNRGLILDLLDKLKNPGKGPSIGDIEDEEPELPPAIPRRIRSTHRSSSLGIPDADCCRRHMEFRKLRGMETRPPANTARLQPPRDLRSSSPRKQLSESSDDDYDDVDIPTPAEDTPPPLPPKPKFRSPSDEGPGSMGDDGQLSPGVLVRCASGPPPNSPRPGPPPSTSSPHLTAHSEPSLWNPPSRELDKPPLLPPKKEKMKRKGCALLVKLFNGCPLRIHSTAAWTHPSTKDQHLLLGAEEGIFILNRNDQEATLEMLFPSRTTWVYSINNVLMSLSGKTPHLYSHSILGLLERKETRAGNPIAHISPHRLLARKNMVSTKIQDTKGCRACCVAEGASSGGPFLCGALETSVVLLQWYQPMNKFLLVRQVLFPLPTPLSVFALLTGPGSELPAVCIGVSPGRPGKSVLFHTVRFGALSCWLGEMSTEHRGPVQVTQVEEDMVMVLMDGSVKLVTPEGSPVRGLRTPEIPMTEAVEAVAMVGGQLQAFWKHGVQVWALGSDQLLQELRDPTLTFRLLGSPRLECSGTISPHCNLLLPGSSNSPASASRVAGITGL

Row | SMILES | HPK1/GLK Fold [1] | AUC [2] | DC50 ([3]; class symbols) | IC50 [4] | DC50 ([3]; numeric values)
1 | Cc1cc(-c2cnc3[nH]cc(-c4cnn5c4CCC5)c3n2)cc(C)c1C1=CCN(CC2CN(c3ccc(N4CCC(=O)NC4=O)c(F)c3)C2)CC1 [compound 170] | ++++ (1000≤Fold) | 12700 ng·h/mL | < 10 nM | < 10 nM | –
2 | Cc1cc(-c2cnc3[nH]cc(-c4ccc(C(=O)N(C)C)cc4)c3n2)cc(C)c1C1=CCN(CC#Cc2cccc3c(C4CCC(=O)NC4=O)coc23)CC1 (stereo not shown) [compound 024] | ++++ (1000≤Fold) | 12000 ng·h/mL | < 10 nM | < 10 nM | –
3 | Cc1cc(N2CC(CN3CC=C(c4c(C)cc(-c5cnc6[nH]cc(-c7ccc(C(=O)N(C)C)cc7)c6n5)cc4C)CC3)C2)ccc1N1CCC(=O)NC1=O [compound 014] | ++++ (1000≤Fold) | 11400 ng·h/mL | < 10 nM | < 10 nM | –
4 | Cc1cc(-c2cnc3[nH]cc(-c4ccc(C(=O)N(C)C)cc4)c3n2)cc(C)c1C1=CCN(CC2CN(c3cc4c(cc3F)c(N3CCC(=O)NC3=O)nn4C)C2)CC1 [compound 062] | ++++ (1000≤Fold) | 9920 ng·h/mL | – | < 10 nM | –
5 | Cc1cc(-c2cnc3[nH]cc(-c4ccc(C(=O)N(C)C)cc4)c3n2)cc(C)c1C1=CCN(CC2CN(c3ccc(C(=O)NC4CCC(=O)NC4=O)nc3)C2)CC1 (stereo not shown) [compound 016] | ++++ (1000≤Fold) | 5000 ng·h/mL | < 10 nM | < 10 nM | –
6 | Cc1cc(-c2cnc3[nH]cc(-c4ccc(C(=O)N(C)C)cc4)c3c2)cc(C)c1C1=CCN(CC2CN(c3ccc(N4CCC(=O)NC4=O)c(F)c3)C2)CC1 [compound 144] | ++++ (1000≤Fold) | 5750 ng·h/mL | < 10 nM | < 10 nM | –
7 | Cc1cc(N2CC(CN3CC=C(c4c(C)cc(-c5cnc6[nH]cc(-c7cnn(C8CCN(CC(F)F)CC8)c7)c6c5)cc4C)CC3)C2)ccc1N1CCC(=O)NC1=O [compound 110] | – | 4070 ng·h/mL | – | < 10 nM | 12.4 nM
8 | COc1cc(-c2cnc3[nH]cc(-c4ccc(C(=O)N(C)C)cc4)c3n2)ccc1C1=CCN(CC2CN(c3ccc(N4CCC(=O)NC4=O)c(C)c3)C2)CC1 [compound 135] | ++++ (1000≤Fold) | 5480 ng·h/mL | < 10 nM | < 10 nM | –
9 | Cc1cc(-c2cnc3[nH]cc(-c4cncc5c4ncn5C)c3n2)cc(C)c1C1=CCN(CC2CN(c3cc(F)c(C4CCC(=O)NC4=O)c(F)c3)C2)CC1 (stereo not shown) [compound 057] | ++++ (1000≤Fold) | 11300 ng·h/mL | – | < 10 nM | –
10 | Cc1cc(-c2cnc3[nH]cc(-c4ccc(C(=O)N(C)C)cc4)c3n2)cc(C)c1C1=CCN(CC2CN(c3cnn(C4CCC(=O)NC4=O)c(=O)c3)C2)CC1 (stereo not shown) [compound 085] | ++++ (1000≤Fold) | 8530 ng·h/mL | < 10 nM | < 10 nM | –
11 | Cc1cc(-c2cnc3[nH]cc(-c4ccc(C(=O)N(C)C)cc4)c3n2)cc(C)c1C1=CCN(CC2CN(c3ccc(NC4CCC(=O)NC4=O)cc3F)C2)CC1 (stereo not shown) [compound 052] | ++++ (1000≤Fold) | 6300 ng·h/mL | < 10 nM | – | –
12 | Cc1cc(-c2cnc3[nH]cc(-c4ccc(C(=O)N(C)C)cc4)c3n2)cc(C)c1C1=CCN(CC2CN(c3ccc(N4CCC(=O)NC4=O)c(F)c3)C2)CC1 [compound 049] | ++++ (1000≤Fold) | 9570 ng·h/mL | < 10 nM | < 10 nM | –
13 | Cc1cc(-c2cnc3[nH]cc(-c4ccc(C(=O)N(C)C)cc4)c3n2)cc(C)c1C1=CCN(CC2CN(c3ccc(C(=O)NC4CCC(=O)NC4=O)cc3)C2)CC1 (stereo not shown) [compound 081] | ++++ (1000≤Fold) | – | < 10 nM | < 10 nM | –
14 | O=C1CCN(c2cc(C(=O)N3CCC(CC4CCN(c5ccc(-c6cnc7[nH]cc(-c8cnn(CC(F)(F)F)c8)c7n6)cn5)CC4)CC3)ccc2Cl)C(=O)N1 [Compound a, reference compound] | – | 3850 ng·h/mL | – | – | –
15 | Cc1cc(-c2cnc3[nH]cc(-c4ccc(C(=O)N5CC6(COC6)C5)cc4)c3n2)cc(C)c1C1=CCN(CC2CN(c3ccc(N4CCC(=O)NC4=O)c(F)c3)C2)CC1 [compound 105] | ++++ (1000≤Fold) | – | < 10 nM | < 10 nM | –
16 | Cc1cc(-c2cnc3[nH]cc(-c4ccc(C(=O)N(C)C)cc4)c3n2)cc(C)c1C1=CCN(C2CN(c3ccc(C(=O)NC4CCC(=O)NC4=O)cn3)C2)CC1 (stereo not shown) [compound 011] | ++++ (1000≤Fold) | 8990 ng·h/mL | – | < 10 nM | –
17 | Cc1cc(-c2c[nH]c3ncc(-c4cc(C)c(C5=CCN(CC6CN(c7ccc(N8CCC(=O)NC8=O)c(F)c7)C6)CC5)c(C)c4)nc23)c(C)s1 [compound 150] | ++++ (1000≤Fold) | 13100 ng·h/mL | < 10 nM | < 10 nM | –
18 | Cc1cc(-c2cnc3[nH]cc(-c4ccc(C(=O)N(C)C)cc4)c3n2)cc(C)c1C1=CCN(CC2CN(c3ccc(OC4CCC(=O)NC4=O)cn3)C2)CC1 (stereo not shown) [compound 086] | ++++ (1000≤Fold) | 8500 ng·h/mL | – | < 10 nM | –
